These are literature values, as cited in publication PMC6669827 (Toxins, 2019).

The series concerns rat α9α10 nAChR. The settings on record: cited from earlier work.

Consider Vc1.1, for which the “affinity for rat versus human α9/α10 (in words)” value is reported as “the affinity is higher for the rat subtypes”.
